We go through six molecules from patent publication US8580921B2, “Protein nanorings” (University of Minnesota, priority 2005, dated 2013).

The test system of one data set is Daudi cells. The settings on record: 2 hr incubation; cited from earlier work.
The conditions of data set [1]: humans; cited from earlier work.
The conditions of data set [2]: given orally to mice; cited from earlier work.
In data set [3] the test system is 39 human tumor cell lines. The settings on record: cited from earlier work.
The nature of data set [4]: SEC of isolated DHFR^2 oligomers after storage or dilution. The data set is classed as physicochemical. The settings on record: oligomers with MTX^2-C9 isolated by SEC (dimers, tetramers, octamers), stored 2 weeks at 4° C. On the procedure: SEC was employed to initially assess the degree of DHFR^2 induced oligomerization by MTX^2. The purified DHFR^2-13 (10 uM) and MTX^2-C9 were mixed at a range of stoichiometries, allowed to equilibrate for one hour, and assayed by size exclusion chromatography on a Superdex G75 Column (Amersham).
Assemblies of this size, however, approach or exceed the exclusion limit of the G75 matrix, preventing definitive assignment of the molecular weight and oligomer number. The dimeric fraction increased at the expense of the larger oligomers with time, becoming the dominant species. […] For DHFR^2-3, tetramers were the dominant species, further increasing with time. […] In addition, in contrast to the expected result from linear oligomers, no observable change in composition was observed when oligomer samples were dilution to a concentration of 5 nM.

Broadly, the IC50 is the concentration needed to halve the response being measured. Regarding `COc1cccc2c1C(=O)c1c(O)c3c(c(O)c1C2=O)C[C@@](O)(C(=O)CO)C[C@@H]3O[C@H]1C[C@H](N)[C@H](O)[C@H](C)O1` [doxorubicin], the IC50 in the data set with Daudi cells is 225 ± 35 nM. As a reminder, the half-life is how long it takes for the measured level to halve. In the case of `COc1cc(Cc2cnc(N)nc2N)cc(OC)c1OC` [trimethoprim], the half-life in data set [1] was 11 h. The LD50 result in data set [2] was “greater than 3 grams/kg”. Regarding auristatin, the IC50 in data set [3] is 3.2 ± 0.51 nM; in the data set on Daudi cells it was 4.6 ± 4.3 nM.

B1: DHFR^2-13: two wild-type E. coli DHFR modules separated by a 13 (GLG5LVPRGT) amino acid linker (protein)
chain: MISLIAALAVDRVIGMENAMPWNLPADLAWFKRNTLNKPVIMGRHTWESIGRPLPGRKNIILSSQPGTDDRVTWVKSVDEAIAACGDVPEIMVIGGGRVYEQFLPKAQKLYLTHIDAEVEGDTHFPDYEPDDWESVFSEFHDADAQNSHSYCFEILERRGLGGGGGLVPRGTMISLIAALAVDRVIGMENAMPWNLPADLAWFKRNTLNKPVIMGRHTWESIGRPLPGRKNIILSSQPGTDDRVTWVKSVDEAIAACGDVPEIMVIGGGRVYEQFLPKAQKLYLTHIDAEVEGDTHFPDYEPDDWESVFSEFHDADAQNSHSYCFEILERR
modifications: left off: small tags and cut ends
In the case of B1, the “oligomer composition on re-injection after storage” value (from here on “oligomer composition”) in data set [4] is recorded as “no change in the oligomer composition”.

B2: DHFR^2-1G: E. coli DHFR-DHFR fusion protein with 1 (G) amino acid linker (protein)
chain: MISLIAALAVDRVIGMENAMPWNLPADLAWFKRNTLNKPVIMGRHTWESIGRPLPGRKNIILSSQPGTDDRVTWVKSVDEAIAACGDVPEIMVIGGGRVYEQFLPKAQKLYLTHIDAEVEGDTHFPDYEPDDWESVFSEFHDADAQNSHSYCFEILERRGMISLIAALAVDRVIGMENAMPWNLPADLAWFKRNTLNKPVIMGRHTWESIGRPLPGRKNIILSSQPGTDDRVTWVKSVDEAIAACGDVPEIMVIGGGRVYEQFLPKAQKLYLTHIDAEVEGDTHFPDYEPDDWESVFSEFHDADAQNSHSYCFEILERR
modifications: left off: small tags and cut ends
notes: E. coli DHFR-DHFR fusion protein with 1 (G) amino acid linker
As to B2, the “oligomer composition” value in data set [4] was “no change in the oligomer composition”.

B3: DHFR^2-3: E. coli DHFR-DHFR fusion protein with 3 amino acid linker (GGT) (protein)
chain: MISLIAALAVDRVIGMENAMPWNLPADLAWFKRNTLNKPVIMGRHTWESIGRPLPGRKNIILSSQPGTDDRVTWVKSVDEAIAACGDVPEIMVIGGGRVYEQFLPKAQKLYLTHIDAEVEGDTHFPDYEPDDWESVFSEFHDADAQNSHSYCFEILERRGGTMISLIAALAVDRVIGMENAMPWNLPADLAWFKRNTLNKPVIMGRHTWESIGRPLPGRKNIILSSQPGTDDRVTWVKSVDEAIAACGDVPEIMVIGGGRVYEQFLPKAQKLYLTHIDAEVEGDTHFPDYEPDDWESVFSEFHDADAQNSHSYCFEILERR
modifications: left off: small tags and cut ends
For the molecule B3, in data set [4], the “oligomer composition” value is reported as “no change in the oligomer composition”.
